Values after ≈ are worked out from the molar mass of the structure shown.
Test system: up to 32 different microorganisms
Assay: in vitro antibacterial activity (MIC), agar dilution on Brain Heart Infusion (BHI) agar with Steers replicator
Format: cell-based
Conditions: unit assumed
In short: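 MIC read visually: lowest drug level with no growth, slight haze or sparsely isolated colonies on the inoculum spot relative to drug-free control. Serial aqueous compound dilutions in BHI agar, 1:100 inoculum (1:10 slow strains), 20 to 24 hours at 35°-37° C.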

Structure (SMILES): CCC1OC(=O)C(C)C(=O)C(C)C(OC2OC(C)CC(N(C)C)C2O)C(C)(OCC=Cc2cnc3ccc(NC(C)=O)cc3c2)CC(C)C(=O)C(C)C2NC(=O)OC12C (centres unmarked) [Example 203]
- MIC (organism code AA): 0.2 µg/mL (≈ 0.243 µM)
- MIC (organism code BB): 0.39 µg/mL (≈ 0.474 µM)
- MIC (organism code CC): > 100 µg/mL
- MIC (organism code DD): 0.2 µg/mL (≈ 0.243 µM)
- MIC (organism code EE): 0.2 µg/mL (≈ 0.243 µM)
- MIC (organism code FF): 0.39 µg/mL (≈ 0.474 µM)
- MIC (organism code GG): > 100 µg/mL
- MIC (organism code HH): 0.2 µg/mL (≈ 0.243 µM)
- MIC (organism code II): 0.2 µg/mL (≈ 0.243 µM)
- MIC (organism code JJ): ≤ 0.005 µg/mL
- MIC (organism code KK): 0.01 µg/mL (≈ 0.0122 µM)
- MIC (organism code LL): 0.01 µg/mL (≈ 0.0122 µM)
- MIC (organism code MM): 1.56 µg/mL (≈ 1.9 µM)
- MIC (organism code NN): 0.39 µg/mL (≈ 0.474 µM)
- MIC (organism code OO): 0.02 µg/mL (≈ 0.0243 µM)
- MIC (organism code PP): 0.39 µg/mL (≈ 0.474 µM)
- MIC (organism code QQ): 100 µg/mL (≈ 122 µM)
- MIC (organism code RR): 0.39 µg/mL (≈ 0.474 µM)
- MIC (organism code SS): 100 µg/mL (≈ 122 µM)
- MIC (organism code TT): > 100 µg/mL
- MIC (organism code UU): 6.2 µg/mL (≈ 7.53 µM)
- MIC (organism code VV): 0.39 µg/mL (≈ 0.474 µM)
- MIC (organism code WW): 4 µg/mL (≈ 4.86 µM)
- MIC (organism code XX): 0.03 µg/mL (≈ 0.0365 µM)
- MIC (organism code YY): 0.03 µg/mL (≈ 0.0365 µM)
- MIC (organism code ZZ): 16 µg/mL (≈ 19.4 µM)
- MIC (organism code ZZA): 2 µg/mL (≈ 2.43 µM)

Structure (SMILES): CCC1OC(=O)C(C)C(=O)C(C)C(OC2OC(C)CC(N(C)C)C2O)C(C)(OCC=Cc2ccc3ncc(-c4ccccc4)cc3c2)CC(C)C(=O)C(C)C2NC(=O)OC12C (centres unmarked) [Example 273, Compound of Formula (IX): L is CO, T is NH2, R is —CH2CH═CH-(3-phenyl-6-quinolyl)]
- MIC (organism code AA): 0.2 µg/mL
- MIC (organism code BB): 0.2 µg/mL
- MIC (organism code CC): > 100 µg/mL
- MIC (organism code DD): 0.2 µg/mL
- MIC (organism code EE): 0.2 µg/mL
- MIC (organism code FF): 0.2 µg/mL
- MIC (organism code GG): > 100 µg/mL
- MIC (organism code HH): 0.2 µg/mL
- MIC (organism code II): 0.1 µg/mL
- MIC (organism code JJ): 0.02 µg/mL
- MIC (organism code KK): 0.02 µg/mL
- MIC (organism code LL): 0.05 µg/mL
- MIC (organism code MM): 12.5 µg/mL
- MIC (organism code NN): 0.39 µg/mL
- MIC (organism code OO): 0.05 µg/mL
- MIC (organism code PP): 0.39 µg/mL
- MIC (organism code QQ): > 100 µg/mL
- MIC (organism code RR): 0.78 µg/mL
- MIC (organism code SS): > 100 µg/mL
- MIC (organism code TT): > 100 µg/mL
- MIC (organism code UU): 0.78 µg/mL
- MIC (organism code VV): 0.39 µg/mL
- MIC (organism code WW): 8 µg/mL
- MIC (organism code XX): 0.03 µg/mL
- MIC (organism code YY): 0.03 µg/mL
- MIC (organism code ZZ): 16 µg/mL
- MIC (organism code ZZA): 0.5 µg/mL

Structure (SMILES): CCC1OC(=O)C(C)C(=O)C(C)C(OC2OC(C)CC(N(C)C)C2O)C(C)(OCC=Cc2cnc3cccc([N+](=O)[O-])c3c2)CC(C)C(=O)C(C)C2NC(=O)OC12C (centres unmarked) [Example 210, R is —CH2CH═CH-(5-nitro-3-quinolyl)]
- MIC (organism code AA): 0.1 µg/mL (≈ 0.123 µM)
- MIC (organism code CC): > 100 µg/mL
- MIC (organism code DD): 0.1 µg/mL (≈ 0.123 µM)
- MIC (organism code EE): 0.1 µg/mL (≈ 0.123 µM)
- MIC (organism code FF): 0.1 µg/mL (≈ 0.123 µM)
- MIC (organism code GG): > 100 µg/mL
- MIC (organism code HH): 0.1 µg/mL (≈ 0.123 µM)
- MIC (organism code II): 0.02 µg/mL (≈ 0.0247 µM)
- MIC (organism code JJ): ≤ 0.005 µg/mL
- MIC (organism code KK): ≤ 0.005 µg/mL
- MIC (organism code LL): 0.01 µg/mL (≈ 0.0123 µM)
- MIC (organism code MM): 0.78 µg/mL (≈ 0.962 µM)
- MIC (organism code NN): 0.2 µg/mL (≈ 0.247 µM)
- MIC (organism code OO): 0.02 µg/mL (≈ 0.0247 µM)
- MIC (organism code PP): 0.2 µg/mL (≈ 0.247 µM)
- MIC (organism code QQ): 50 µg/mL (≈ 61.7 µM)
- MIC (organism code RR): 0.2 µg/mL (≈ 0.247 µM)
- MIC (organism code SS): > 100 µg/mL
- MIC (organism code TT): > 100 µg/mL
- MIC (organism code UU): 0.78 µg/mL (≈ 0.962 µM)
- MIC (organism code VV): 0.02 µg/mL (≈ 0.0247 µM)
- MIC (organism code WW): 3 µg/mL (≈ 3.7 µM)
- MIC (organism code XX): 0.015 µg/mL (≈ 0.0185 µM)
- MIC (organism code YY): ≤ 0.004 µg/mL
- MIC (organism code ZZ): 4 µg/mL (≈ 4.93 µM)
- MIC (organism code ZZA): 0.25 µg/mL (≈ 0.308 µM)
